# Like-named read-outs stand apart in the source and are kept apart here. Where no end group is shown, it is not given here.
# Experiments:
# Test in all cases: Direct-binding FRET assay
# BATF2 = target: T1, BATF2 (Homo sapiens, UniProt Q8N1L9)
# T1 construct: made in house
# T1 sequence (Q8N1L9 17-80 limits assumed): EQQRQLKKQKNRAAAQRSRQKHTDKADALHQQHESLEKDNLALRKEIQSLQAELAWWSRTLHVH
# Description: (§1) The direct binding assay was performed manually in 384-well plates and is similar to a previously described assay. Wells were filled with 20 μL of 1 mM TCEP-HCl. A 4 μM stock of acceptor protein was made fresh in 1 mM TCEP-HCl, and 20 μL was titrated in 2-fold dilutions over the wells. […] The direct-binding FRET data were fit as previously described. Briefly, the Kd of the designed peptide homodimer was experimentally determined and used with previously determined target homodimer Kd values to determine the heterodimer Kd. The homodimer Kd values used for the human bZIPs were from; experiments done by […] et al. used the same protein constructs for the human bZIP proteins, the same buffer conditions, and the same assay. The fitting used a system of ordinary differential equations to describe the concentrations of homo and heterodimers formed by the donor (D) and acceptor (A) as a function of the heterodimer Kd. MATLAB was used to simulate the binding experiment for different Kd values, and the value that gave the best agreement between simulation and experiment was assigned. A minimum 15% change in the donor fluorescence upon titrating the acceptor peptide from 0 to 1000 nM was required for a fit to be attempted. If this minimum was not met, the interaction was classified as “NS” for no signal change. […] These interactions were marked “AS” to indicate anomalous signal. We attributed this to interactions between the peptides, the dyes and the walls of the assay plates at low concentrations. These curves could not be fit, given their unusual shapes at low concentrations of acceptor. For such curves, we removed the first five points and re-fit the data. […] One example of this is increasing concentrations of acceptor causing an increase in donor fluorescence.
# NFE2L2 = target: T2, NFE2L2 (Homo sapiens, UniProt Q16236)
# T2 construct: made in house
# T2 sequence (Q16236 497-560 limits assumed): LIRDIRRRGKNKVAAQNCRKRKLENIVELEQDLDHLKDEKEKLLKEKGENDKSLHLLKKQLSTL
# Description: as §1
# DBP = target: T3, DBP (Homo sapiens, UniProt Q10586)
# T3 construct: made in house
# T3 sequence (Q10586 255-318 limits assumed): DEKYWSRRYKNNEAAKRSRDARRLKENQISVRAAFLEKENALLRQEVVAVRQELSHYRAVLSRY
# Description: as §1
# CREB3L3 = target: T4, CREB3L3 (Homo sapiens, UniProt Q68CJ9)
# T4 construct: made in house
# T4 sequence (Q68CJ9 243-306 limits assumed): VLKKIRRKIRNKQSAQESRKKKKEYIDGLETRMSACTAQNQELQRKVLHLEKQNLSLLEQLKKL
# Description: as §1
# ATF2 = target: T5, ATF2 (Homo sapiens, UniProt P15336); conditions: mean or single
# T5 construct: made in house
# T5 sequence (P15336 352-415 limits assumed): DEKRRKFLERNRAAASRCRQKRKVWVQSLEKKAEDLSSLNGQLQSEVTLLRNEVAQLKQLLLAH
# Description: as §1
# CREB3L1 = target: T6, CREB3L1 (Homo sapiens, UniProt Q96BA8)
# T6 construct: made in house
# T6 sequence (Q96BA8 290-353 limits assumed): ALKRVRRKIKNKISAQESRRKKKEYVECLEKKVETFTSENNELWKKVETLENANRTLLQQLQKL
# Description: as §1
# BATF3 = target: T7, BATF3 (Homo sapiens, UniProt Q9NR55); conditions: mean or single
# T7 construct: made in house
# T7 sequence (Q9NR55 35-98 limits assumed): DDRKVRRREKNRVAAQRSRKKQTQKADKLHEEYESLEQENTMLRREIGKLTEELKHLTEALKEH
# Description: as §1
# JUNB = target: T8, JUNB (Homo sapiens, UniProt P17275); conditions: mean or single
# T8 construct: made in house
# T8 sequence (P17275 268-331 limits assumed): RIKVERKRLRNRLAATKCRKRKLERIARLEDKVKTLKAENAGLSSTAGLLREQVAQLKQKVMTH
# Description: as §1
# CREB3 = target: T9, CREB3 (Homo sapiens, UniProt O43889)
# T9 construct: made in house
# T9 sequence (O43889 150-213 limits assumed): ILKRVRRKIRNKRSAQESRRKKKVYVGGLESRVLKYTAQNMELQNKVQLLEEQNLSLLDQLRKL
# Description: as §1
# BATF = target: T10, BATF (Homo sapiens, UniProt Q16520)
# T10 construct: made in house
# T10 sequence (Q16520 26-89 limits assumed): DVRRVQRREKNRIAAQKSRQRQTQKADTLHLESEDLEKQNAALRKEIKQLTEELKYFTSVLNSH
# Description: as §1
# [1] = Kd, 4°C, C-terminal fluorescein design as donor, TAMRA target titrated
# [2] = Kd, 4°C, C-terminal rhodamine design, mean or single
# [3] = Kd, 4°C, N-terminal rhodamine design, mean or single
# [4] = Kd, 23°C, C-terminal fluorescein design as donor, TAMRA target titrated
# [5] = Kd, 23°C, C-terminal rhodamine design, mean or single
# [6] = Kd, 23°C, N-terminal rhodamine design, mean or single
# [7] = Kd, 37°C, C-terminal fluorescein design as donor, TAMRA target titrated
# [8] = Kd, 37°C, C-terminal rhodamine design, mean or single
# [9] = Kd, 37°C, N-terminal rhodamine design, mean or single
# [10] = 4°C, C-terminal rhodamine design, mean or single
# [11] = 4°C, N-terminal rhodamine design, mean or single
# [12] = 23°C, C-terminal rhodamine design, mean or single
# [13] = 23°C, N-terminal rhodamine design, mean or single
# [14] = 37°C, N-terminal rhodamine design, mean or single
# [15] = Kd, 4°C, N-terminal rhodamine design
# [16] = Kd, 23°C, N-terminal rhodamine design
# [17] = Kd, 37°C, N-terminal rhodamine design
# [18] = Kd, 4°C, C-terminal rhodamine design
# [19] = Kd, 23°C, C-terminal rhodamine design
# [20] = Kd, 37°C, C-terminal rhodamine design
# [21] = 4°C, C-terminal rhodamine design, mean or single, read-out: Kd
# [22] = 4°C, N-terminal rhodamine design, mean or single, read-out: Kd
# [23] = 23°C, C-terminal rhodamine design, mean or single, read-out: Kd
# [24] = 23°C, N-terminal rhodamine design, mean or single, read-out: Kd
# [25] = 37°C, C-terminal rhodamine design, mean or single, read-out: Kd
# [26] = 37°C, N-terminal rhodamine design, mean or single, read-out: Kd
# [27] = 4°C, C-terminal rhodamine design, read-out: Kd
# [28] = 23°C, C-terminal rhodamine design, read-out: Kd
# [29] = 23°C, N-terminal rhodamine design, read-out: Kd
# [30] = 37°C, C-terminal rhodamine design, read-out: Kd
# [31] = 37°C, N-terminal rhodamine design, read-out: Kd
# [32] = 4°C, N-terminal rhodamine design, read-out: Kd
sequence,measurement,setting,value
SIAATLEKEEANLEKMNKKLAAEIESLLKEKDKLESVLNYHE [JUN-d1],Kd,BATF2; [1],> 1000 nM
same,Kd,BATF2; [2],> 5000 nM
same,Kd,BATF2; [3],> 1000 nM
same,Kd,BATF2; [4],> 1000 nM
same,Kd,BATF2; [5],> 1000 nM
same,Kd,BATF2; [6],> 1000 nM
same,Kd,BATF2; [7],> 1000 nM
same,Kd,BATF2; [8],> 1000 nM
same,Kd,BATF2; [9],> 1000 nM
same,Kd,NFE2L2; [1],> 1000 nM
same,Kd,NFE2L2; [2],> 1000 nM
same,Kd,NFE2L2; [3],> 1000 nM
same,Kd,NFE2L2; [4],> 1000 nM
same,Kd,NFE2L2; [5],> 1000 nM
same,Kd,NFE2L2; [6],> 1000 nM
same,Kd,NFE2L2; [7],> 1000 nM
same,Kd,NFE2L2; [8],> 5000 nM
same,Kd,NFE2L2; [9],> 1000 nM
same,Kd,DBP; [1],> 1000 nM
same,Kd,DBP; [2],> 5000 nM
same,Kd,DBP; [3],> 1000 nM
same,Kd,DBP; [4],> 1000 nM
same,Kd,DBP; [5],> 5000 nM
same,Kd,DBP; [6],> 1000 nM
same,Kd,DBP; [7],> 1000 nM
same,Kd,DBP; [8],> 1000 nM
same,Kd,DBP; [9],> 1000 nM
same,Kd,CREB3L3,> 1000 nM
same,Kd,"CREB3L3; 4°C, C-terminal fluorescein design as donor, TAMRA target titrated",> 1000 nM
same,Kd,CREB3L3; [10],> 1000 nM
same,Kd,CREB3L3; [11],> 1000 nM
same,Kd,"CREB3L3; 23°C, C-terminal fluorescein design as donor, TAMRA target titrated",> 1000 nM
same,Kd,CREB3L3; [12],> 1000 nM
same,Kd,CREB3L3; [13],> 1000 nM
same,Kd,"CREB3L3; 37°C, C-terminal fluorescein design as donor, TAMRA target titrated",> 1000 nM
same,Kd,CREB3L3; [14],> 1000 nM
same,Kd,ATF2; [15],200 to 1000 nM
same,Kd,ATF2; [16],> 1000 nM
same,Kd,ATF2; [17],> 1000 nM
same,Kd,CREB3L1,> 1000 nM
same,Kd,CREB3L1; [10],> 1000 nM
same,Kd,CREB3L1; [11],> 1000 nM
same,Kd,CREB3L1; [12],> 1000 nM
same,Kd,CREB3L1; [13],> 1000 nM
same,Kd,CREB3L1; [14],> 1000 nM
same,Kd,BATF3; [18],362 nM
same,Kd,BATF3; [15],> 1000 nM
same,Kd,BATF3; [19],> 5000 nM
same,Kd,BATF3; [16],> 1000 nM
same,Kd,BATF3; [20],> 1000 nM
same,Kd,BATF3; [17],> 1000 nM
same,Kd,JUNB; [18],1 nM
same,Kd,JUNB; [15],2.7 nM
same,Kd,JUNB; [19],8.4 nM
same,Kd,JUNB; [16],53 nM
same,Kd,JUNB; [20],51 nM
same,Kd,JUNB; [17],850 nM
same,Kd,CREB3,> 1000 nM
same,Kd,CREB3; [10],> 1000 nM
same,Kd,CREB3; [11],> 1000 nM
same,Kd,CREB3; [12],> 1000 nM
same,Kd,CREB3; [13],> 1000 nM
same,Kd,CREB3; [14],> 1000 nM
same,Kd,BATF; [1],> 1000 nM
same,Kd,BATF; [2],200 to 1000 nM
same,Kd,BATF; [3],> 1000 nM
same,Kd,BATF; [4],> 1000 nM
same,Kd,BATF; [5],> 1000 nM
same,Kd,BATF; [6],> 1000 nM
same,Kd,BATF; [7],> 1000 nM
same,Kd,BATF; [8],> 1000 nM
same,Kd,BATF; [9],> 1000 nM
KRIAYLRQRIAELRNENHVLESRIQRMEKEKDALQQDRDHLEYEL [ATF5-d1],Kd,BATF2; [21],591 nM
same,Kd,BATF2; [22],76 nM
same,Kd,BATF2; [23],> 5000 nM
same,Kd,BATF2; [24],509 nM
same,Kd,BATF2; [25],> 1000 nM
same,Kd,BATF2; [26],> 5000 nM
same,Kd,NFE2L2; [21],> 5000 nM
same,Kd,NFE2L2; [22],> 1000 nM
same,Kd,NFE2L2; [23],> 1000 nM
same,Kd,NFE2L2; [24],> 1000 nM
same,Kd,NFE2L2; [25],> 5000 nM
same,Kd,NFE2L2; [26],> 1000 nM
same,Kd,DBP; [21],> 1000 nM
same,Kd,DBP; [22],> 5000 nM
same,Kd,DBP; [23],> 1000 nM
same,Kd,DBP; [24],> 1000 nM
same,Kd,DBP; [25],> 1000 nM
same,Kd,DBP; [26],> 1000 nM
same,Kd,CREB3L3; [21],230 nM
same,Kd,CREB3L3; [22],> 5000 nM
same,Kd,CREB3L3; [23],414 nM
same,Kd,CREB3L3; [24],> 5000 nM
same,Kd,CREB3L3; [25],657 nM
same,Kd,CREB3L3; [26],> 1000 nM
same,Kd,ATF2; [27],> 5000 nM
same,Kd,ATF2; [28],> 5000 nM
same,Kd,ATF2; [29],> 1000 nM
same,Kd,ATF2; [30],> 5000 nM
same,Kd,ATF2; [31],> 1000 nM
same,Kd,CREB3L1; [21],158 nM
same,Kd,CREB3L1; [22],> 5000 nM
same,Kd,CREB3L1; [23],529 nM
same,Kd,CREB3L1; [24],> 5000 nM
same,Kd,CREB3L1; [26],> 1000 nM
same,Kd,BATF3; [27],192 nM
same,Kd,BATF3; [32],52.8 nM
same,Kd,BATF3; [28],791 nM
same,Kd,BATF3; [29],315 nM
same,Kd,BATF3; [30],> 5000 nM
same,Kd,BATF3; [31],> 5000 nM
same,Kd,JUNB; [27],3620 nM
same,Kd,JUNB; [32],> 1000 nM
same,Kd,JUNB; [28],> 1000 nM
same,Kd,JUNB; [29],> 1000 nM
same,Kd,JUNB; [30],> 1000 nM
same,Kd,JUNB; [31],> 1000 nM
same,Kd,CREB3; [21],147 nM
same,Kd,CREB3; [22],> 1000 nM
same,Kd,CREB3; [23],> 5000 nM
same,Kd,CREB3; [24],> 1000 nM
same,Kd,CREB3; [25],200 to 1000 nM
same,Kd,CREB3; [26],> 1000 nM
same,Kd,BATF; [21],> 5000 nM
same,Kd,BATF; [22],136 nM
same,Kd,BATF; [23],> 5000 nM
same,Kd,BATF; [24],382 nM
same,Kd,BATF; [25],> 5000 nM
same,Kd,BATF; [26],> 5000 nM

# Reference: publication PMC4335062, “Data-Driven Prediction and Design of bZIP Coiled-Coil Interactions” (PLoS Computational Biology, 2015)
